These are literature values, as cited in US20210319872A1, “DRUG AND DEVICE COMBINATION PRODUCTS WITH IMPROVED SAFETY AND EFFICACY PROFILES” (priority 2016, published 2021).

Like-named read-outs stand apart in the source and are kept apart here. Bounds are passed on as bounds.

On to `CC1(C)O[C@@H]2[C@@H](CO[C@@]3(COS(N)(=O)=O)OC(C)(C)O[C@@H]23)O1` [Topiramate (Topamax)], for which, under “in vivo”, the Confusion entry was “Neurologic: Confusion (3% to 11%), Dizziness (4% to 25%),”; the Dizziness result is “Neurologic: Confusion (3% to 11%), Dizziness (4% to 25%),”; the Fatigue entry is reported as “Other: Fatigue (6% to 16%), Fever (1% to 12%)”; the Fever entry is reported as “Other: Fatigue (6% to 16%), Fever (1% to 12%)”. Further, for the setting “in vivo”, the Flushing result is recorded as “Dermatologic: Flushing (pediatrics, 5%)”; the Hyperammonemia entry is given as “Endocrine metabolic: Hyperammonemia (Adolescents, 26%),”; the Impaired cognition entry is reported as “Impaired cognition (2% to 7%), Impaired psychomotor”; the Impaired psychomotor performance entry is “performance (2% to 13%), Memory impairment (3% to 12%),”. Moreover, under “in vivo”, the Infectious disease result is “Immunologic: Infectious disease (2% to 8%)”; the Memory impairment result is recorded as “performance (2% to 13%), Memory impairment (3% to 12%),”; the Nephrolithiasis entry is “Renal: Nephrolithiasis (adults, 1% to 3%)”; the “Serious side effect, Endocrine metabolic” value is listed as “Hypohidrosis, Increased body temperature, Metabolic acidosis”. In addition, under “in vivo”, the “Serious side effect, Hepatic” value was “Hepatic: Liver failure”; the “Serious side effect, Neurologic” value is “Neurologic: Drug-induced encephalopathy”; the “Serious side effect, Ophthalmic” value is “Ophthalmic: Glaucoma, Myopia, Visual field defect (epilepsy,”; the “Serious side effect, Psychiatric” value is on record as “Psychiatric: Suicidal thoughts”. Also, under “in vivo”, the Somnolence was 10%), Somnolence (6% to 29%); the Visual field defect is 0.1% to 1%); the Weight decreased entry was “(4% to 21%)”.

Take `OCCN(CCO)c1nc(N2CCCCC2)c2nc(N(CCO)CCO)nc(N3CCCCC3)c2n1` [Dipyridamole]: for the setting “IV”, the Bronchospasm result is on record as “Respiratory: Bronchospasm (IV, 0.2%)”; the Chest pain entry is “Cardiovascular: Chest pain (IV, up to 30%), Electrocardiogram”; the Dizziness is on record as 11.8%; the Flushing is reported as 3.4%. Also, where the note is “IV”, the Myocardial infarction is given as 0.1% and the Ventricular tachycardia entry was “tachycardia (IV, 0.2%)”. Also, for the setting “oral”, the Abdominal discomfort entry is on record as “Gastrointestinal: Abdominal discomfort (oral, 6.1%)”; the Dizziness is recorded as 13.6%; the Headache was 2.3%; the Rash was 2.3%.

`CC#CCn1c(N2CCC[C@@H](N)C2)nc2c1c(=O)n(Cc1nc(C)c3ccccc3n1)c(=O)n2C` [Tradjenta]: the Hypoglycemia result by setting is: (combination therapy) “combination therapy, 22.9%)”; (monotherapy) “Endocrine metabolic: Hypoglycemia (monotherapy, 6.6%;”. Moreover, the Nasopharyngitis result (in vivo) was “Respiratory: Nasopharyngitis (7%)”.

For the compound `CCOC(=O)C1=C(COCCN)NC(C)=C(C(=O)OC)C1c1ccccc1Cl` (stereo not drawn) [Amlodipine (Norvasc, Lotrel)], under “in vivo”, the Abdominal pain result is “Gastrointestinal: Abdominal pain (1.6%), Nausea (2.9%.)”; the Dizziness entry was “Neurologic: Dizziness (Up to 3.4%), Headache (7.3%),”; the Fatigue entry is “Other: Fatigue (4.5%)”; the Flushing result is “Cardiovascular: Flushing (0.7% to 2.6%), Palpitations (Up to”. For the same compound, under “in vivo”, the Headache entry is reported as “Neurologic: Dizziness (Up to 3.4%), Headache (7.3%),”; the Nausea entry is on record as “Gastrointestinal: Abdominal pain (1.6%), Nausea (2.9%.)”; the Palpitations is given as ≤ 4.5%), Peripheral edema (Up to 10.8%); the Peripheral edema is given as ≤ 4.5%), Peripheral edema (Up to 10.8%). Also, the Somnolence entry (in vivo) is given as “Somnolence (1.4%)”.

As to Contrave, under “in vivo”, the Amnesia entry was “Neurologic: Amnesia (Less than 2%), Seizure (0.1%)”; the Anxiety result is “Psychiatric: Anxiety (4.2%)”; the Cholecystitis entry is on record as “Gastrointestinal: Cholecystitis (Less than 2%), Hematochezia (Less”; the Constipation entry was “Gastrointestinal: Constipation (19.2%), Diarrhea (7.1%), Nausea”. Besides, where the note is “in vivo”, the Depression entry is listed as “Psychiatric: Depression (6.3% to 7.1%), Mania, Psychiatric”; the Diarrhea entry was “Gastrointestinal: Constipation (19.2%), Diarrhea (7.1%), Nausea”; the Dizziness entry is recorded as “Neurologic: Dizziness (9.9%), Headache (17.6%), Insomnia (9.2%)”; the Erythema multiforme result was “Dermatologic: Erythema multiforme (Rare), Stevens-Johnson”. For the same compound, for the setting “in vivo”, the Headache entry was “Neurologic: Dizziness (9.9%), Headache (17.6%), Insomnia (9.2%)”; the Hypertension result is “Cardiovascular: Hypertension (3.2%), Increased heart rate,”; the “Infectious disorder of kidney” value is “Renal: Infectious disorder of kidney (Less than 2%), Serum”; the Insomnia entry is “Neurologic: Dizziness (9.9%), Headache (17.6%), Insomnia (9.2%)”. Where the note is “in vivo”, the Intervertebral disc prolapse result is on record as “Musculoskeletal: Intervertebral disc prolapse (Less than 2%)”; the Myocardial infarction entry is reported as “Myocardial infarction (Less than 2%)”; the Nausea entry is listed as “(32.5%), Vomiting (10.7%), Xerostomia (8.1%)”; the Pneumonia result is “Respiratory: Pneumonia (Less than 2%)”. For the setting “in vivo”, the Seizure result was “Neurologic: Amnesia (Less than 2%), Seizure (0.1%)”; the “Serious side effect, Cardiovascular” value is given as “Cardiovascular: Hypertension (3.2%), Increased heart rate,”; the “Serious side effect, Endocrine metabolic” value was “Endocrine metabolic: Hypoglycemia”; the “Serious side effect, Hepatic” value was “Hepatic: Hepatotoxicity”. Moreover, for the setting “in vivo”, the “Serious side effect, Immunologic” value is listed as “Immunologic: Anaphylaxis, Delayed hypersensitivity disorder”; the “Serious side effect, Ophthalmic” value is given as “Ophthalmic: Angle-closure glaucoma”; the “Serious side effect, Psychiatric” value was “Psychiatric: Depression (6.3% to 7.1%), Mania, Psychiatric”; the Serum creatinine raised result is recorded as “creatinine raised (Less than 2%)”. Besides, where the note is “in vivo”, the Stevens-Johnson syndrome entry is reported as “syndrome (Rare)”; the Suicidal thoughts result is listed as “symptom, Suicidal thoughts (0.03%)”; the Vomiting result is listed as “(32.5%), Vomiting (10.7%), Xerostomia (8.1%)”; the Xerostomia result was “(32.5%), Vomiting (10.7%), Xerostomia (8.1%)”.

As to `Cc1nc2n(c(=O)c1CCN1CCC(c3noc4cc(F)ccc34)CC1)CCCC2` [Risperidone (Risperdal)], under “in vivo”, the Akathisia result is listed as “Neurologic: Akathisia (oral, up to 10%; IM, 4% to 11%), Dizziness”; the Anxiety entry is “Psychiatric: Anxiety (oral, up to 16% IM, less than 4%)”; the Constipation result is “Gastrointestinal: Constipation (oral, 8% to 21%; IM, 5% to 7%),”; the Diarrhea entry was “Diarrhea (oral, 1% to 8%; IM, less than 4%), Excessive salivation”. In addition, for the setting “in vivo”, the Dystonia is given as < 5%; pediatric, 2% to 6%; IM, adult, less than 4%), Parkinsonism; the Excessive salivation result is recorded as “(oral, 1% to 10%; IM, 1% to 4%), Increased appetite (oral, adult,”; the Fatigue is 3% to 9%), Pain, General (IM, 1% to 4%); the Hyperprolactinemia is < 1%; pediatrics, 49% to 87%; IM, less than 4%), Weight increased. Under “in vivo”, the Increased appetite result is reported as “more than 5%; pediatric, 4% to 47%; IM, 4%), Indigestion (oral,”; the Indigestion is 2% to 10%; IM, 6%), Nausea (oral, 4% to 16%; IM, 3% to 4%),; the Nausea is 2% to 10%; IM, 6%), Nausea (oral, 4% to 16%; IM, 3% to 4%),; the “Pain, General” value was 3% to 9%), Pain, General (IM, 1% to 4%). Further, under “in vivo”, the Parkinsonism result is listed as “(oral, 6% to 28%; IM, 8% to 15%), Sedated (oral, adult, 3% to 6%;”; the Rash entry is recorded as “IM, less than 4%)”; the Syncope entry is recorded as “Syncope (oral, up to 1%; IM, up to 2%)”; the Tardive dyskinesia result is “less than 5%; IM, less than 4%)”. Moreover, for the setting “in vivo”, the Tremor entry is given as “pediatric, 8% to 29%), Tremor (oral, 2% to 12%; IM, 3% to 24%)”; the Upper respiratory infection result is “respiratory infection (oral, 2% to 8%; IM, 2% and 6%)”; the Vomiting is < 16%), Vomiting (oral, 10% to 25%; IM, less than 4%), Xerostomia; the Weight increased entry is “(oral, adult, 8.7% to 20.9%; pediatric, 14% to 32.6%; IM, adult, 8%”. Besides, the Xerostomia result (in vivo) is on record as “(oral, 4% to 15%; IM, up to 7%)”. Further, for the setting “in vivo, po”, the Akathisia entry is listed as “Neurologic: Akathisia (oral, up to 10%; IM, 4% to 11%), Dizziness”; the Anxiety result is “Psychiatric: Anxiety (oral, up to 16% IM, less than 4%)”; the Cerebrovascular accident entry was “Neurologic: Cerebrovascular accident (oral, less than 5%; IM, less”; the Constipation entry was “Gastrointestinal: Constipation (oral, 8% to 21%; IM, 5% to 7%),”. Besides, for the setting “in vivo, po”, the Diarrhea result is “Diarrhea (oral, 1% to 8%; IM, less than 4%), Excessive salivation”; the Excessive salivation result is “(oral, 1% to 10%; IM, 1% to 4%), Increased appetite (oral, adult,”; the Fatigue entry is listed as “Other: Fatigue (oral, adult, 1% to 3%; pediatric, 18% to 42%; IM,”; the Hyperprolactinemia was < 1%; pediatrics, 49% to 87%; IM, less than 4%), Weight increased. Further, where the note is “in vivo, po”, the Increased appetite result is recorded as “more than 5%; pediatric, 4% to 47%; IM, 4%), Indigestion (oral,”; the Indigestion is given as 2% to 10%; IM, 6%), Nausea (oral, 4% to 16%; IM, 3% to 4%),; the Nasal congestion was 4%), Nasal congestion (oral, adult, 4% to 6%; pediatric, 13%),; the Nausea is reported as 2% to 10%; IM, 6%), Nausea (oral, 4% to 16%; IM, 3% to 4%),. For the same compound, under “in vivo, po”, the Pain in throat entry was “throat (oral, adult, more than 5%; pediatric, 3% to 10%), Upper”; the Parkinsonism entry is recorded as “(oral, 6% to 28%; IM, 8% to 15%), Sedated (oral, adult, 3% to 6%;”; the Rash entry was “Dermatologic: Rash (oral, adults, 1% to 4%; pediatrics, up to 11%;”; the Syncope entry is on record as “Syncope (oral, up to 1%; IM, up to 2%)”. Further, under “in vivo, po”, the Tardive dyskinesia result is reported as “less than 5%; IM, less than 4%)”; the Tremor entry was “pediatric, 8% to 29%), Tremor (oral, 2% to 12%; IM, 3% to 24%)”; the Upper respiratory infection result was “respiratory infection (oral, 2% to 8%; IM, 2% and 6%)”; the Vomiting is given as 16%), Vomiting (oral, 10% to 25%; IM, less than 4%), Xerostomia. Further, under “in vivo, po”, the Weight increased entry was “(oral, adult, 8.7% to 20.9%; pediatric, 14% to 32.6%; IM, adult, 8%” and the Xerostomia result was “(oral, 4% to 15%; IM, up to 7%)”.

For `CCC[C@H](N[C@@H](C)C(=O)N1[C@H](C(=O)O)C[C@@H]2CCCC[C@@H]21)C(=O)OCC` [Perindopril (Aceon)], under “in vivo”, the Angioedema entry is listed as “Other: Angioedema (0.1% to 0.5%)”; the Backache result was “Musculoskeletal: Backache (5.8%)”; the Cough entry is given as “Respiratory: Cough (12%)”; the Dizziness entry is on record as “Neurologic: Asthenia, Dizziness (8.2%), Headache”. For the same compound, the Orthostatic hypotension result (in vivo) is “Cardiovascular: Cardiac arrest, Orthostatic hypotension (0.8%)”.
